Where a name gives a salt, the structure may show the parent alone. Read-outs that look alike come from different tables or passages of the source.
What was measured:
[1] = molecular target: MCL-1 (Homo sapiens, UniProt Q07820); assay: Protein-protein interaction assay MCL-1/Noxa BH3 peptide (MCL-1 assay), TR-FRET; assay type: binding; conditions: MBP-MCL-1 / Noxa BH3-derived peptide, median
How it was run: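 Inhibition values were normalized between DMSO controls with all reagents and controls lacking MCL-1. The binding competition used 1 nM MBP-MCL-1 in pH 7 Tris buffer containing 50 mM KF and 100 mM NaCl, with a 10 min compound preincubation at 22 °C.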

[2] = system: SUDHL5; assay: Induction of caspase-3/7 activity (Caspase-Glo 3/7), SUDHL5; assay type: cell-based; conditions: caspase-3/7 induction, SUDHL5 cells, 3 h treatment, median
How it was run: (§1)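 Apoptosis induction measured as caspase-3/7 activity (Caspase-Glo 3/7) in DLBCL lines after 3 h treatment at 37 °C; EC50 derived relative to the reference compound's maximal induction, with C0 fixed at 1.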

[3] = system: SUDHL10; assay: Induction of caspase-3/7 activity (Caspase-Glo 3/7), SUDHL10; assay type: cell-based; conditions: caspase-3/7 induction, SUDHL10 cells, 3 h treatment, median
How it was run: as §1

[4] = system: SUDHL5; assay: Anti-proliferative effect (CellTiter-Glo, 72 h), SUDHL5; assay type: cell-based; conditions: SUDHL5 cells, antiproliferation, median, read-out: Antiproli SUDHL5 [M] (median)
How it was run: (§2)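 After seeding, one plate is read right away by CellTiter-Glo luminescence to fix time zero. The treated plates stay at 37 °C in humidified air for 72 h and are then measured with the same reagent and 10 min incubation.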

[5] = system: SUDHL10; assay: Anti-proliferative effect (CellTiter-Glo, 72 h), SUDHL10; assay type: cell-based; conditions: SUDHL10 cells, antiproliferation, median, read-out: Antiproli SUDHL10 [M] (median)
How it was run: as §2

[6] = system: A2780; assay: Anti-proliferative effect (CellTiter-Glo, 72 h), A2780; assay type: cell-based; conditions: A2780 cells, median, read-out: IC50 antiproliferation assay A2780 [M] (median)
How it was run: as §2

[7] = system: SUDHL5; assay: Induction of cytotoxicity (CellTiter-Glo, 5 h), SUDHL5
[8] = system: SUDHL10; assay: Induction of cytotoxicity (CellTiter-Glo, 5 h), SUDHL10
[9] = read-out: Cytotox SUDHL5 [M] (median), SUDHL5 cells, cytotoxicity induction, CellTiter-Glo, 5 h incubation, median
[10] = read-out: Cytotox SUDHL10 [M] (median), SUDHL10 cells, cytotoxicity induction, CellTiter-Glo, 5 h incubation, median
[11] = Homo sapiens, SU-DHL-5, 72 h, 72 h incubation
[12] = Homo sapiens, SU-DHL10, 72 h, 72 h incubation
[13] = Homo sapiens, SU-DHL-5, 5 h, read-out: Cytotox SUDHL5 [M] (median), SUDHL5 cells, cytotoxicity induction, CellTiter-Glo, 5 h incubation, median
[14] = Homo sapiens, SU-DHL10, 5 h, read-out: Cytotox SUDHL10 [M] (median), SUDHL10 cells, cytotoxicity induction, CellTiter-Glo, 5 h incubation, median

MCL-1, sequence (Q07820 whole entry): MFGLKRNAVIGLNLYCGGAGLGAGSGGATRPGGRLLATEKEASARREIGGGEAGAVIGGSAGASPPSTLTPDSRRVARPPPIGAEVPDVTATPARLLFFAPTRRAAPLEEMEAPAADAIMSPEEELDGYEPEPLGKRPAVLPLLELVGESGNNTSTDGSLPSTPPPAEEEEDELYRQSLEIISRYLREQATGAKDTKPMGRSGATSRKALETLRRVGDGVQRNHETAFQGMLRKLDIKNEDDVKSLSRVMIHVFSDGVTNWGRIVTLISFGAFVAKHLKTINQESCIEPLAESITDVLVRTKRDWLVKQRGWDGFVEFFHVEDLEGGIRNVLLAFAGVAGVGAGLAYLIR

SMILES	IC50 [1]	EC50 [2]	EC50 [3]	IC50 ([4]; 72 h incubation)	IC50 ([5]; 72 h incubation)	IC50 [6]	EC50 ([2]; Homo sapiens, SU-DHL-5, 3 h)	EC50 ([3]; Homo sapiens, SU-DHL10, 3 h)	IC50 [4, 11]	IC50 [5, 12]	IC50 ([6]; Homo sapiens, A2780, 72 h)	IC50 ([4]; Homo sapiens, SU-DHL-5, 72 h, 72 h)	IC50 ([5]; Homo sapiens, SU-DHL10, 72 h, 72 h)	IC50 [7, 9]	IC50 [8, 10]	IC50 [7, 13]	IC50 [8, 14]	IC50 ([7]; Homo sapiens, SU-DHL-5, 5 h, read-out: Cytotox SUDHL5 [M] (median), SUDHL5 cells, cytotoxicity induction, CellTiter-Glo, 5 h, median)	IC50 ([8]; Homo sapiens, SU-DHL10, 5 h, read-out: Cytotox SUDHL10 [M] (median), SUDHL10 cells, cytotoxicity induction, CellTiter-Glo, 5 h, median)
Cc1ccc2c(CCCOc3cccc4ccccc34)c(C(=O)O)n3c2c1-c1c(nn(C)c1C)COCCCC3 (single isomer, unassigned; enantiomer 2) [Example 077, 2,3,4-trimethyl-7-[3-(naphthalen-1-yloxy)propyl]-2,10,11,12,13,15-hexahydropyrazolo[4′,3′:9,10][1,6]oxazacycloundecino[8,7,6-hi]indole-8-carboxylic Acid (Enantiomer 2)]	0.0342 µM	> 33 µM	> 33 µM	2.73e-05 M	1.17e-05 M	2.06e-05 M								> 3.3e-05 M	> 3.3e-05 M				
Cc1ccc2c(CCCOc3cccc4ccccc34)c(C(=O)O)n3c2c1-c1c(C)nn(C)c1COCC=CC3 (racemic) [Example 038, (rac)-(E/Z)-1,3,4-trimethyl-7-[3-(1-naphthyloxy)propyl]-1,10,13,15-tetrahydropyrazolo[4′,3′:9,10][1,6]oxazacycloundecino[8,7,6-hi]indole-8-carboxylic Acid]	0.00965 µM						13.9 µM	> 33 µM	1.64e-05 M	1.46e-05 M	> 3.3e-05 M					1.46e-05 M	> 3.3e-05 M		
Cc1nn(CC(F)(F)F)c2c1-c1cccc3c(CCCOc4cccc5c4CCCC5)c(C(=O)O)n(c13)CCCCOC2 (single isomer, unassigned; enantiomer 2) [Example 163, 3-methyl-7-[3-(5,6,7,8-tetrahydronaphthalen-1-yloxy)propyl]-1-(2,2,2-trifluoroethyl)-1,10,11,12,13,15-hexahydropyrazolo[4′,3′:9,10][1,6]oxazacycloundecino[8,7,6-hi]indole-8-carboxylic acid-N-ethylethanamine Salt (Enantiomer 2)]	0.637 µM	> 33 µM	> 33 µM	1.17e-05 M		2.75e-05 M				6.35e-06 M				2.93e-05 M	> 3.3e-05 M				
Cn1nc2c(c1OC(F)F)-c1cccc3c(CCCOc4cccc5ccccc45)c(C(=O)O)n(c13)CCCCOC2 (racemic) [Example 234, (rac)-3-(difluoromethoxy)-2-methyl-7-[3-(naphthalen-1-yloxy)propyl]-2,10,11,12,13,15-hexahydropyrazolo[4′,3′:9,10][1,6]oxazacycloundecino[8,7,6-hi]indole-8-carboxylic Acid]	0.0139 µM						30.1 µM	31.6 µM	3.15e-05 M	1.98e-05 M	3.04e-05 M					2.71e-05 M	> 3.3e-05 M		
Cc1c2c(nn1C)CCCCCCn1c(C(=O)O)c(CCCOc3cccc4ccccc34)c3cccc-2c31 (single isomer, unassigned; enantiomer 2) [Example 192, 2,3-dimethyl-7-[3-(1-naphthyloxy)propyl]-10,11,12,13,14,15-hexahydro-2H-pyrazolo[4′,3′:4,5]azacycloundecino[3,2,1-hi]indole-8-carboxylic acid-N-ethylethanamine Salt (Enantiomer 2)]	0.123 µM	> 33 µM	> 33 µM	2.03e-05 M	9.22e-06 M	1.8e-05 M								> 3.3e-05 M	> 3.3e-05 M				
Cc1cc2c(OCCCc3c(C(=O)O)n4c5c(cccc35)-c3c(C)nn(C)c3COCCCC4)cccc2cc1F (single isomer, unassigned; enantiomer 1) [Example 050, 7-{3-[(6-fluoro-7-methylnaphthalen-1-yl)oxy]propyl}-1,3-dimethyl-1,10,11,12,13,15-hexahydropyrazolo[4′,3′:9,10][1,6]oxazacycloundecino[8,7,6-hi]indole-8-carboxylic acid-N-ethylethanamine Salt (Enantiomer 1)]	0.00882 µM	6.3 µM						18.8 µM	1.41e-05 M	7.75e-06 M	3.01e-05 M			4.45e-06 M	9.61e-06 M				
Cn1nc(CN2CCCC2=O)c2c1COCCCCn1c(C(=O)O)c(CCCOc3cccc4ccccc34)c3cccc-2c31 (single isomer, unassigned; enantiomer 2) [Example 329, 1-methyl-7-[3-(naphthalen-1-yloxy)propyl]-3-[(2-oxopyrrolidin-1-yl)methyl]-1,10,11,12,13,15-hexahydropyrazolo[4′,3′:9,10][1,6]oxazacycloundecino[8,7,6-hi]indole-8-carboxylic Acid (Enantiomer 2)]	3 µM						> 33 µM	> 33 µM			> 3.3e-05 M	> 3.3e-05 M	> 3.3e-05 M					> 3.3e-05 M	> 3.3e-05 M

These reach a lower IC50 [1]. Values come first.

IC50 [1]	EC50 [2]	EC50 [3]	IC50 ([4]; 72 h incubation)	IC50 ([5]; 72 h incubation)	IC50 [6]	EC50 ([2]; Homo sapiens, SU-DHL-5, 3 h)	EC50 ([3]; Homo sapiens, SU-DHL10, 3 h)	IC50 [4, 11]	IC50 [5, 12]	IC50 ([6]; Homo sapiens, A2780, 72 h)	IC50 ([4]; Homo sapiens, SU-DHL-5, 72 h, 72 h)	IC50 ([5]; Homo sapiens, SU-DHL10, 72 h, 72 h)	SMILES	IC50 [7, 9]	IC50 [8, 10]	IC50 [7, 13]	IC50 [8, 14]	IC50 ([7]; Homo sapiens, SU-DHL-5, 5 h, read-out: Cytotox SUDHL5 [M] (median), SUDHL5 cells, cytotoxicity induction, CellTiter-Glo, 5 h, median)	IC50 ([8]; Homo sapiens, SU-DHL10, 5 h, read-out: Cytotox SUDHL10 [M] (median), SUDHL10 cells, cytotoxicity induction, CellTiter-Glo, 5 h, median)
0.00735 µM	5.09 µM	15.1 µM		6.28e-06 M				7.95e-06 M		1.82e-05 M			Cn1nc2c(c1C(F)(F)F)-c1cccc3c(CCCOc4cccc5ccccc45)c(C(=O)O)n(c13)CCCCOC2 (single isomer, unassigned; enantiomer 1) [Example 194, 2-methyl-7-[3-(naphthalen-1-yloxy)propyl]-3-(trifluoromethyl)-2,10,11,12,13,15-hexahydropyrazolo[4′,3′:9,10][1,6]oxazacycloundecino[8,7,6-hi]indole-8-carboxylic Acid (Enantiomer 1)]	5.46e-06 M	1.63e-05 M				
0.00318 µM						14.2 µM	> 33 µM	1.1e-05 M	6.98e-06 M	1.57e-05 M			Cc1cc2c(OCCCc3c(C(=O)O)n4c5c(cccc35)-c3c(C)nn(C)c3COCCCC4)cccc2cc1F (racemic) [Example 049, (rac)-7-{3-[(6-fluoro-7-methylnaphthalen-1-yl)oxy]propyl}-1,3-dimethyl-1,10,11,12,13,15-hexahydropyrazolo[4′,3′:9,10][1,6]oxazacycloundecino[8,7,6-hi]indole-8-carboxylic Acid]			1.13e-05 M	3.14e-05 M		
0.00225 µM					2.39e-05 M	1.46 µM	5.89 µM	2.43e-06 M	4.14e-06 M	> 3.3e-05 M			COCc1nn(C)c2c1-c1cccc3c(CCCOc4cccc5ccccc45)c(C(=O)O)n(c13)CCCCN(C)C2 (racemic) [Example 183, (rac)-3-(methoxymethyl)-1,14-dimethyl-7-[3-(naphthalen-1-yloxy)propyl]-10,11,12,13,14,15-hexahydro-1H-pyrazolo[3′,4′:8,9][1,6]diazacycloundecino[10,11,1-hi]indole-8-carboxylic Acid]			1.88e-06 M	5.55e-06 M		

From patent publication US10981932B2, “Macrocyclic indole derivatives” (Bayer Aktiengesellschaft, priority 2016, dated 2021)
